Tested on: mice
Experiment: Conditioned place preference (CPP) test of addictive potential
Assay type: in vivo, mouse
Conditions: 5 mg/kg, three conditioning days
Excerpt: The conditioned place preference (CPP) test was used to compare morphine and LMK235 post-drug behaviors to baseline. Time spent in their assigned drug administration chamber post-drug was divided by the time spent in the chamber during the baseline recording. A score of 1 meant that there was no difference in time spent in either chamber after dosing. A score greater than 1 meant more time was spent in the assigned drug chamber, and a score less than 1 meant less time was spent in the assigned drug chamber.
Mice were assigned either vehicle, morphine (5 mg/kg) or LMK235 (5 mg/kg) and assigned cubicle designation for groups (n=3) as follows: Vehicle-Blank, Vehicle-Striped, Morphine-Blank, Morphine-Striped, LMK-Blank, LMK-Striped. For baseline collection, mice were placed in the middle of the box and allowed access to both chambers for 15 minutes. Time spent in each chamber was recorded. For the subsequent three test days, mice were injected with their assigned drug and placed in their assigned chamber, without access to the other chamber, for 30 minutes. On the final test day, mice were placed in the middle of the box and allowed access to both chambers for 15 minutes. Time spent in each chamber was recorded.

Which “time in assigned drug chamber post-drug versus baseline (addictive potential)” value does the source give for `CN1CC[C@]23c4c5ccc(O)c4O[C@H]2[C@@H](O)C=C[C@H]3[C@H]1C5` [morphine] here?
Its value is “spent more time in their assigned drug chamber”.

Source: patent US20250345295A1, “LMK235 COMPOSITIONS AND METHODS” (UNM Rainforest Innovations, priority 2024, published 2025)
